Results as given in ChEMBL document CHEMBL5724914, “Linking interpersonal differences in gut microbiota composition and drug biotransformation activity” (2024).

Columns and labels:
[1] = human gut metagenome, 24 h, 2 µM
[2] = (§1) The drug is tested on WLS-039 corresponding to human gut metagenome with ENA study accession number: PRJEB37062 and ENA sample accession number: ERS12561746 for biotransformation under anaerobic condition. The drug concentrations were measured over 9 timepoints collected between 0 and 24 hours of incubation by liquid-chromatography-coupled mass spectrometry (LC–MS); conditions: 2 µM
[3] = as §1, with “WLS-170” for “WLS-039”, “ERS12561762” for “ERS12561746”; conditions: 2 µM
[4] = as §1, with “WLS-220” for “WLS-039”, “ERS12561769” for “ERS12561746”; conditions: 2 µM
[5] = as §1, with “WLS-310” for “WLS-039”, “ERS12561785” for “ERS12561746”; conditions: 2 µM
[6] = as §1, with “WLS-082” for “WLS-039”, “ERS12561751” for “ERS12561746”; conditions: 2 µM
[7] = human gut metagenome, 24 h, 2 µM; remark: listed apart in the source
[8] = human gut metagenome, 24 h, 2 µM; remark: listed apart in the source
[9] = as §1, with “Z-011” for “WLS-039”, “mouse” for “human”, “ERS12561811” for “ERS12561746”; conditions: 2 µM
[10] = as §1, with “Z-014” for “WLS-039”, “rat” for “human”, “ERS12561814” for “ERS12561746”; conditions: 2 µM
[11] = human gut metagenome, 24 h, 2 µM; remark: listed apart in the source
[12] = as §1, with “Z-002” for “WLS-039”, “rabbit” for “human”, “ERS12561802” for “ERS12561746”; conditions: 2 µM
[13] = as §1, with “Z-018” for “WLS-039”, “pig” for “human”, “ERS12561817” for “ERS12561746”; conditions: 2 µM
[14] = as §1, with “Z-019” for “WLS-039”, “rat” for “human”, “ERS12561818” for “ERS12561746”; conditions: 2 µM
[15] = human gut metagenome, 24 h, 2 µM; remark: listed apart in the source
[16] = human gut metagenome, 24 h, 2 µM; remark: listed apart in the source
[17] = human gut metagenome, 24 h, 2 µM; remark: listed apart in the source
[18] = human gut metagenome, 24 h, 2 µM; remark: listed apart in the source
[19] = as §1, with “Z-016” for “WLS-039”, “mouse” for “human”, “ERS12561815” for “ERS12561746”; conditions: 2 µM
[20] = human gut metagenome, 24 h, 2 µM; remark: listed apart in the source

Measured: Bacterial Biotransformation
Further: call rule not given here.

NC(=O)N1c2ccccc2CC(=O)c2ccccc21 [OXCARBAZEPINE]
Compound NOT metabolized: [1] | [2] | [3] | [4] | [5] | [6] | [9] | [10] | [11] | [14] | [15] | [16] | [17] | [18] | [19]
Compound metabolized: [7] | [8] | [12] | [13] | [20]

CCN(CC)CC#CCOC(=O)C(O)(c1ccccc1)C1CCCCC1.Cl (stereo not given) [OXYBUTYNIN CHLORIDE]
Compound NOT metabolized: [9] | [10] | [14] | [18] | [19]
Compound metabolized: [1] | [2] | [3] | [4] | [5] | [6] | [7] | [8] | [11] | [12] | [13] | [15] | [16] | [17] | [20]

Fc1ccc([C@@H]2CCNC[C@H]2COc2ccc3c(c2)OCO3)cc1 [PAROXETINE]
Compound NOT metabolized: [1] | [9] | [10] | [12] | [13] | [14] | [15] | [17] | [18] | [19]
Compound metabolized: [2] | [3] | [4] | [5] | [6] | [7] | [8] | [11] | [16] | [20]

O=c1[nH]c2ccccc2n1C1CCN(CCCC(c2ccc(F)cc2)c2ccc(F)cc2)CC1 [PIMOZIDE]
Compound metabolized: [3] | [4] | [5] | [6] | [7] | [8] | [9] | [11] | [13] | [16] | [17] | [19]
Compound NOT metabolized: [1] | [2] | [10] | [12] | [14] | [15] | [18] | [20]

COc1cc2nc(N3CCN(C(=O)c4ccco4)CC3)nc(N)c2cc1OC [PRAZOSIN]
Compound metabolized: [3] | [4] | [5] | [6] | [11] | [16] | [17]
Compound NOT metabolized: [1] | [2] | [7] | [8] | [9] | [10] | [12] | [13] | [14] | [15] | [18] | [19] | [20]

CS(=O)(=O)O.OC(CCN1CCCCC1)(c1ccccc1)c1ccccc1 [PRIDINOL METHANESULFONATE]
Compound NOT metabolized: [1] | [2] | [6] | [7] | [8] | [9] | [10] | [13] | [14] | [15] | [16] | [17] | [19] | [20]
Compound metabolized: [3] | [4] | [5] | [11] | [12] | [18]

CC(CN1c2ccccc2Sc2ccccc21)N(C)C (stereo not given) [PROMETHAZINE]
Compound metabolized: [2] | [3] | [4] | [5] | [7] | [11] | [13] | [15] | [16]
Compound NOT metabolized: [1] | [6] | [8] | [9] | [10] | [12] | [14] | [17] | [18] | [19] | [20]

OCCOCCN1CCN(C2=Nc3ccccc3Sc3ccccc32)CC1 [QUETIAPINE]
Compound NOT metabolized: [1] | [2] | [5] | [6] | [9] | [10] | [14] | [15] | [19] | [20]
Compound metabolized: [3] | [4] | [7] | [8] | [11] | [12] | [13] | [16] | [17] | [18]
